This is an account of results in patent US20250145627A1, “METTL3 Inhibitor and Composition, and Application of Same in Medicine” (XIZANG HAISCO PHARMACEUTICAL CO., LTD., priority 2022, published 2025).

Where two headings read alike, the source gives them in different places.

For data set [1], the system named is MOLM-13 cells. The data set can be described thus: Cell proliferation test on MOLM-13 cells (Cellriter-Glo). It counts as cell-based. The settings on record: Homo sapiens. The procedure:
Cell plating: Cells were plated when they grow to a logarithmic growth phase. The cells were collected and the cell density was adjusted to 6×10^4 cells/mL; then the cell suspension is then poured into a loading slot and added into a 96-well cell culture plate at 50 μL/well (3000 cells/well viable cells). Note: the cells in the loading slot were well mixed while plating; cell information and plating date were labeled on the 96-well plates. NC wells (control wells) and BG wells (background wells) were provided. […] 50 μL/well of the compounds were added to the 96-well plate in which the cells were already plated. Incubation was carried out at 37° C., 5% CO2 for a period of time. Cell proliferation test: After incubation in the incubator for a period of time, 50 μL of […]-Glo Reagent per well was added. The plate was shaken at room temperature (500 rpm), incubated for 10 min in the dark, and then the […] was measured with a microplate reader. The mean background value was calculated. [formula] […] Specific data were presented in the form of graphs.

Data set [2] addresses T1, hERG potassium ion channel (Homo sapiens, UniProt Q12809).
T1 construct: expressed in transfected cells
The data set can be described thus: Test for hERG potassium ion channel (manual patch-clamp, CHO cells). The settings on record: CHO cells stably expressing hERG, whole cell patch-clamp, room temperature; read-out: IC50 for the inhibitory effect on hERG potassium channel current. It counts as cell-based. The source says: Experimental platform: electrophysiological manual patch-clamp system Cell line: Chinese hamster ovary (CHO) cell lines stably expressing hERG potassium ion channel
Experimental method: in CHO (Chinese Hamster Ovary) cells stably expressing hERG potassium channel, whole cell patch-clamp technique was used to record hERG potassium channel current at room temperature. The glass microelectrode was made of a glass electrode blank (BF150-86-10, Sutter) by a puller. The tip resistance after filling the liquid in the electrode was about 2-5 MO. The glass microelectrode can be connected to the patch-clamp amplifier by inserting the glass microelectrode into an amplifier probe. The clamping voltage and data recording were controlled and recorded by the pClamp 10 software through a computer. The sampling frequency was 10 kHz, and the filtering frequency was 2 kHz. […]
Data processing: Data analysis processing was carried out by using pClamp 10, GraphPad Prism 5 and Excel software. The inhibition degree of hERG potassium current (peak value of hERG tail current induced at −50 mV) at different compound concentrations was calculated by the following formula: […]
Compound IC50 was calculated using GraphPad Prism 5 software by fitting according to the following equation: […]
(hERG is a cardiac potassium channel; its block is linked to QT prolongation.)

Data set [3] in a line: Pharmacokinetic test in mice. It counts as in vivo. The following applies: male C57 mice, plasma. The procedure:
• 2.1 Experimental animals: male C57 mice, 18-20 g, 6 mice/compound or 12 mice/compound. • 2.2 Experimental design: the C57 mice were randomly grouped according to their body weights. The animals were fasted with water available for 12 to 14 h one day before the administration, and were fed 4 h after the administration.
Vehicle for intravenous administration: 5% DMA+5% Solutol+90% Saline; vehicle for intragastric administration: 0.5% MC; • (DMA: dimethylacetamide; Solutol: polyethylene glycol-15-hydroxystearate; Saline: physiological saline; MC: Methyl cellulose solution)
Before and after the administration, 0.06 mL of blood was taken from the orbit of the animals under isoflurane anesthesia and placed in an EDTAK2 centrifuge tube. The blood was centrifuged at 5000 rpm and 4° C. for 10 min to collect the plasma. The blood collection time points for the intravenous administration group and intragastric administration group were 0 min, 5 min, 15 min, 30 min, 1 h, 2 h, 4 h, 7 h and 24 h. Before analysis and detection, all samples were stored at −80° C.

Setting [4] is: MOLM-13 cells, maximum detection concentration 10 μM, read-out: IC50 of compounds on MOLM-13 cells.
Setting [5] is: MOLM-13, read-out: IC50 on MOLM-13 cells.

T1 sequence (Q12809 whole entry): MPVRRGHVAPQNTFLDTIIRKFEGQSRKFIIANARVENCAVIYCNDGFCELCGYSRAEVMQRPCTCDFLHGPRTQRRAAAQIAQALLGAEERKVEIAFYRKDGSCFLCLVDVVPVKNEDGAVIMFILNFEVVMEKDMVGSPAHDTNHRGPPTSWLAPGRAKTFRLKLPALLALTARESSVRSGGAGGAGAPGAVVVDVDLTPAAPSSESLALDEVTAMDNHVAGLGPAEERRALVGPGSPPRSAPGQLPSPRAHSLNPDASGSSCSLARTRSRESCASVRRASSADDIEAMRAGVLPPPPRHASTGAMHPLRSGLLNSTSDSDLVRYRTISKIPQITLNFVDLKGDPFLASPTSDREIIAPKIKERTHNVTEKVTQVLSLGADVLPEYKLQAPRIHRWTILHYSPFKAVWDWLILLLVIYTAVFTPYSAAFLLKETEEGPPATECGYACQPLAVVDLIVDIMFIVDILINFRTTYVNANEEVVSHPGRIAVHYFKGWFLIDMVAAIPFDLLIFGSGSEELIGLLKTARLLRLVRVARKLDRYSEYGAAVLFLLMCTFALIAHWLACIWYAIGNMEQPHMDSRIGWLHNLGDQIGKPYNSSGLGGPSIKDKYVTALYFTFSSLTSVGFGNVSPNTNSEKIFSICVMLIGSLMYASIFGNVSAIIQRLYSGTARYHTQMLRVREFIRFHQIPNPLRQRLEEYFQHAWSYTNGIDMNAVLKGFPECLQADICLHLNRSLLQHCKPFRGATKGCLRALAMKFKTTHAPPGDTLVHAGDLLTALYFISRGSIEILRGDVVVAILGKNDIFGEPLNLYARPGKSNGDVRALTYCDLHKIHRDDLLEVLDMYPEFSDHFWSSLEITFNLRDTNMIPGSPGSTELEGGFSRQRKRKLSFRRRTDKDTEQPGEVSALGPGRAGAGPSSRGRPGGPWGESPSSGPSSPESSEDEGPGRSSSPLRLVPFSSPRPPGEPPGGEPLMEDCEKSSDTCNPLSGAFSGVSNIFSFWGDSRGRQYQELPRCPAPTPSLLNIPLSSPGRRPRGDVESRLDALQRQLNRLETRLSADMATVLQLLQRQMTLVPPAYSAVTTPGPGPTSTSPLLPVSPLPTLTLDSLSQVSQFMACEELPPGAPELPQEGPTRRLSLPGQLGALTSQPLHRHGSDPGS

The IC50 is the point on the concentration scale where inhibition reaches its midpoint. As for `O=C(NCc1ccc2cc(CNCC3CCC3)[nH]c2c1)c1cc(=O)n2ccn(C3CC3)c2n1` [Trifluoroacetate of compound 11], the half-maximal inhibitory concentration (IC50) in data set [1] (setting [4]) was 2000 to 10000 nM.
With `O=C(NCc1cc2[nH]c(CNCC3CCC3)cc2s1)c1cc(=O)n2ccccc2n1` [Trifluoroacetate of compound 12], the IC50 in data set [2] is over 30000 nM; in data set [1] (setting [4]), under 2000 nM.
As to `CCn1ccn2c(=O)cc(C(=O)NCc3ccc4cc(CNCC5CCC5)[nH]c4c3)nc12` [Trifluoroacetate of compound 9], the half-maximal inhibitory concentration (IC50) in data set [1] (setting [4]) fell in the range of 2000 to 10000 nM.
Consider `Cn1ccn2c(=O)cc(C(=O)NCc3ccc4cc(CNCC5CCC5)[nH]c4c3)nc12` [Trifluoroacetate of compound 1], for which the IC50 in data set [1] (setting [4]) is under 2000 nM.
The same measure, in the same setting: the figure for `O=C(NCc1ccc2cc(CNCC3CCC3)[nH]c2c1)c1cc(=O)n2ccn(CC3CC3)c2n1` [Trifluoroacetate of compound 5] is 2000 to 10000 nM.
Take `CC(C)(C)CNCc1cc2sc(CNC(=O)c3cc(=O)n4ccccc4n3)cc2[nH]1` [Compound 22]: the IC50 in data set [1] (setting [4]) lay within 2000 to 10000 nM.
For `CCn1ccn2c(=O)cc(C(=O)NCc3ccc4cc(CNCC56CC(F)(C5)C6)[nH]c4c3)nc12` [Trifluoroacetate of compound 8], the half-inhibitory concentration (IC50) in data set [1] (MOLM-13, read-out: IC50 of compounds on MOLM-13 cells) was under 2000 nM.
Consider `O=C(NCc1ccc2cc(CNCC3CCC3)[nH]c2c1)c1cc(=O)n2cc[nH]c2n1` [Trifluoroacetate of compound 2], for which the IC50 in data set [1] (setting [4]) is 2000 to 10000 nM.
The same measure, in the same setting: as for `C#CCn1ccn2c(=O)cc(C(=O)NCc3ccc4cc(CNCC5CCC5)[nH]c4c3)nc12` [Trifluoroacetate of compound 10], the figure is under 2000 nM; as for `O=C(NCc1cc2[nH]c(CNCC3CCC3)cc2s1)c1cc(=O)n2cc(F)ccc2n1` [Trifluoroacetate of compound 16], 2000 to 10000 nM.
Same read-out and setting: the figure for `O=C(NCc1cc2[nH]c(CNCC3CCC3)cc2s1)c1cc(=O)n2cccc(F)c2n1` [Compound 18] is 2000 to 10000 nM.
In the case of `[2H]C([2H])([2H])n1ccn2c(=O)cc(C(=O)NCc3ccc4cc(CNCC56CC(F)(C5)C6)[nH]c4c3)nc12` [Compound 4], the 50% inhibitory concentration (IC50) in data set [1] (setting [5]) is 160 nM; in data set [1] (setting [4]), under 2000 nM.
Usually AUC(0-t) stands for the area under the concentration-time curve up to a stated or last time point. The low end stands for low exposure, the high end for high exposure. As usually defined, the clearance is a measure of how efficiently the substance is removed, as volume per time. For `O=C(NCc1ccc2cc(CNCC34CC(F)(C3)C4)[nH]c2c1)c1cc(=O)n2ccccc2n1` [Compound 23 in WO 2021111124], in data set [3] (i.g. 10 mg/kg), the F stood at 31.6%. In data set [3] (mouse, iv, i.v. 2.5 mg/kg), this compound yielded an area under the curve AUC(0-t) of 730 ng·h/mL and a clearance of 57 mL/min/kg. For the same compound, the Vd in data set [3] (mouse, iv, i.v. 2.5 mg/kg, read-out: Vdss) is 2.21 L/kg. Besides, the AUC(0-t) in data set [3] (mouse, po, i.g. 10 mg/kg) worked out at 923 ng·h/mL.
In the case of `Cn1ccn2c(=O)cc(C(=O)NCc3ccc4cc(CNCC56CC(F)(C5)C6)[nH]c4c3)nc12` [Compound 3], the 50% inhibitory concentration (IC50) is 230 nM in data set [1] (setting [5]) and under 2000 nM in data set [1] (setting [4]).
For the compound `O=C(NCc1cc2[nH]c(CNC3CCCCC3)cc2s1)c1cc(=O)n2ccccc2n1` [Compound 20], in data set [1] (setting [4]), the half-inhibitory concentration (IC50) is 2000 to 10000 nM.
Same read-out and setting: the figure for `O=C(NCc1cc2[nH]c(CNCC34CC(F)(C3)C4)cc2s1)c1cc(=O)n2ccn(C(F)F)c2n1` [Trifluoroacetate of compound 14] is 2000 to 10000 nM; for `O=C(NCc1cc2[nH]c(CNCC3CCC3)cc2s1)c1cc(=O)n2ccc(C3CC3)cc2n1` [Trifluoroacetate of compound 17] it is 2000 to 10000 nM.
Still for that read-out and setting: the figure for `CC(C)n1ccn2c(=O)cc(C(=O)NCc3ccc4cc(CNCC5CCC5)[nH]c4c3)nc12` [Trifluoroacetate of compound 6] is 2000 to 10000 nM.
